Assay results as given in patent US20170190671A1, “BIS(ARYL)CATECHOL DERIVATIVES AS HERBICIDES” (E I DU PONT DE NEMOURS AND COMPANY, priority 2014, published 2017).

Key:
Conditions in all cases: scale 0 to 100
[1] = system: winter wheat (Triticum aestivum); test: Test D postemergence; assay type: in vivo
From the text: (§1) Seeds of plant species selected from bluegrass (annual bluegrass, Poa annua), blackgrass (Alopecurus myosuroides), canarygrass (Phalaris minor), chickweed (common chickweed, Stellaria media), cutleaf geranium (Geranium dissectum), galium (catchweed bedstraw, Galium aparine), downy bromegrass (Bromus tectorum), field poppy (Papaver rhoeas), field violet (Viola arvensis), green foxtail (Setaria viridis), deadnettle (henbit deadnettle, Lamium amplexicaule), Italian ryegrass (Lolium multiflorum), kochia (Kochia scoparia), lambsquarters (Chenopodium album), oilseed rape (Brassica napus), pigweed (Amaranthus retroflexus), chamomile (scentless chamomile, Matricaria inodora), Russian thistle (Salsola kali), speedwell (bird's-eye speedwell, Veronica persica), spring barley (Hordeum vulgare), spring wheat (Triticum aestivum), wild buckwheat (Polygonum convolvulus), wild mustard (Sinapis arvensis), wild oat (Avenafatua), wild radish (Raphanus raphanistrum), windgrass (Apera spica-venti), winter barley (Hordeum vulgare), and winter wheat (Triticum aestivum) were planted into a silt loam soil and treated preemergence with test chemicals formulated in a non-phytotoxic solvent mixture which included a surfactant.
(§2) At the same time, these species were planted in pots containing Redi-Earth® planting medium (Scotts Company, 14111 Scottslawn Road, Marysville, Ohio 43041) comprising spaghnum peat moss, vermiculite, wetting agent and starter nutrients and treated with postemergence applications of the test chemicals formulated in the same manner. Plants ranged in height from 2 to 18 cm (1- to 4-leaf stage). Treated plants and controls were maintained in a controlled growth environment for 14 to 21 days after which time all species were compared to controls and visually evaluated. Plant response ratings, summarized in Table D, are based on a scale of 0 to 100 where 0 is no effect and 100 is complete control. A dash (-) response means no test result.

kochia (Kochia scoparia) = test: Test D postemergence; assay type: in vivo
From the text: as §1, §2

[2] = system: wild radish (Raphanus raphanistrum); test: Test D postemergence; assay type: in vivo
From the text: as §1, §2

[3] = system: cutleaf geranium (Geranium dissectum); test: Test D postemergence; assay type: in vivo
From the text: as §1, §2

[4] = system: oilseed rape (Brassica napus); test: Test D postemergence; assay type: in vivo
From the text: as §1, §2

[5] = system: Russian thistle (Salsola kali); test: Test D postemergence; assay type: in vivo
From the text: as §1, §2

[6] = system: spring barley (Hordeum vulgare); test: Test D postemergence; assay type: in vivo
From the text: as §1, §2

[7] = system: field poppy (Papaver rhoeas); test: Test D postemergence; assay type: in vivo
From the text: as §1, §2

[8] = system: speedwell (bird's-eye speedwell, Veronica persica); test: Test D postemergence; assay type: in vivo
From the text: as §1, §2

[9] = system: wild mustard (Sinapis arvensis); test: Test D postemergence; assay type: in vivo
From the text: as §1, §2

[10] = system: chamomile (scentless chamomile, Matricaria inodora); test: Test D postemergence; assay type: in vivo
From the text: as §1, §2

wild oat (Avenafatua) = test: Test D preemergence; assay type: in vivo, Avena fatua
From the text: as §1, §2

[11] = system: wild poinsettia (Euphorbia heterophylla); test: Test E preemergence; assay type: in vivo
Outline: (§3)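 Test chemicals, formulated in a non-phytotoxic solvent with surfactant, are applied to silt loam soil after sowing or sprayed over young plants (1–4 leaves) in potting medium. Plants are then kept in a greenhouse for 14 to 21 days and scored 0–100 for control.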

[12] = system: horseweed (Conyza canadensis); test: Test E preemergence; assay type: in vivo
Outline: as §3

[13] = system: johnsongrass (Sorghum halepense); test: Test E preemergence; assay type: in vivo
Outline: as §3

FC(F)(F)c1cnc(Oc2c(Br)cccc2Oc2ncc(Cl)cn2)nc1 [Compound 24]
Plant response rating, Wheat, Winter ([1]; 16 g ai/ha): 10 | Plant response rating, Wheat, Winter ([1]; 31 g ai/ha): 10 | Plant response rating, Wheat, Winter ([1]; 62 g ai/ha): 15 | Plant response rating, Wheat, Winter ([1]; 125 g ai/ha): 15 | Plant response rating, Kochia (kochia (Kochia scoparia); 16 g ai/ha): 40 | Plant response rating, Kochia (kochia (Kochia scoparia); 31 g ai/ha): 65 | Plant response rating, Kochia (kochia (Kochia scoparia); 62 g ai/ha): 80 | Plant response rating, Kochia (kochia (Kochia scoparia); 125 g ai/ha): 95 | Plant response rating, Radish, Wild ([2]; 16 g ai/ha): 75 | Plant response rating, Radish, Wild ([2]; 31 g ai/ha): 75 | Plant response rating, Radish, Wild ([2]; 62 g ai/ha): 95 | Plant response rating, Radish, Wild ([2]; 125 g ai/ha): 100 | Plant response rating, Geranium, Cutleaf ([3]; 16 g ai/ha): 20 | Plant response rating, Geranium, Cutleaf ([3]; 31 g ai/ha): 30 | Plant response rating, Geranium, Cutleaf ([3]; 62 g ai/ha): 45 | Plant response rating, Geranium, Cutleaf ([3]; 125 g ai/ha): 65 | Plant response rating, Oilseed Rape ([4]; 16 g ai/ha): 65 | Plant response rating, Oilseed Rape ([4]; 31 g ai/ha): 70 | Plant response rating, Oilseed Rape ([4]; 62 g ai/ha): 75 | Plant response rating, Oilseed Rape ([4]; 125 g ai/ha): 80 | Plant response rating, Russian Thistle ([5]; 16 g ai/ha): 10 | Plant response rating, Russian Thistle ([5]; 31 g ai/ha): 25 | Plant response rating, Russian Thistle ([5]; 62 g ai/ha): 30 | Plant response rating, Russian Thistle ([5]; 125 g ai/ha): 55 | Plant response rating, Barley, Spring ([6]; 16 g ai/ha): 15 | Plant response rating, Barley, Spring ([6]; 31 g ai/ha): 20 | Plant response rating, Barley, Spring ([6]; 62 g ai/ha): 20 | Plant response rating, Barley, Spring ([6]; 125 g ai/ha): 25 | Plant response rating, Field Poppy ([7]; 16 g ai/ha): 70 | Plant response rating, Field Poppy ([7]; 31 g ai/ha): 80 | Plant response rating, Field Poppy ([7]; 62 g ai/ha): 90 | Plant response rating, Field Poppy ([7]; 125 g ai/ha): 95 | Plant response rating, Speedwell ([8]; 16 g ai/ha): 35 | Plant response rating, Speedwell ([8]; 31 g ai/ha): 60 | Plant response rating, Speedwell ([8]; 62 g ai/ha): 80 | Plant response rating, Speedwell ([8]; 125 g ai/ha): 90 | Plant response rating, Mustard, Wild ([9]; 16 g ai/ha): 50 | Plant response rating, Mustard, Wild ([9]; 31 g ai/ha): 80 | Plant response rating, Mustard, Wild ([9]; 62 g ai/ha): 70 | Plant response rating, Mustard, Wild ([9]; 125 g ai/ha): 85 | Plant response rating, Chamomile ([10]; 16 g ai/ha): 5 | Plant response rating, Chamomile ([10]; 31 g ai/ha): 5 | Plant response rating, Chamomile ([10]; 62 g ai/ha): 10 | Plant response rating, Chamomile ([10]; 125 g ai/ha): 15 | Plant response rating, Oat, Wild (wild oat (Avenafatua); 16 g ai/ha): 0 | Plant response rating, Oat, Wild (wild oat (Avenafatua); 31 g ai/ha): 15 | Plant response rating, Oat, Wild (wild oat (Avenafatua); 62 g ai/ha): 25 | Plant response rating, Oat, Wild (wild oat (Avenafatua); 125 g ai/ha): 75

Fc1ccc(F)c(Oc2ncc(Cl)cn2)c1Oc1ncc(Cl)cn1 [Compound 34, 2,2′-[(3,6-difluoro-1,2-phenylene)bis(oxy)]bis[5-chloropyrimidine]]
Plant response rating, Poinsettia, Wild ([11]; 16 g ai/ha): 0 | Plant response rating, Poinsettia, Wild ([11]; 31 g ai/ha): 10 | Plant response rating, Poinsettia, Wild ([11]; 62 g ai/ha): 20 | Plant response rating, Poinsettia, Wild ([11]; 125 g ai/ha): 50 | Plant response rating, Horseweed ([12]; 16 g ai/ha): 0 | Plant response rating, Horseweed ([12]; 31 g ai/ha): 0 | Plant response rating, Horseweed ([12]; 62 g ai/ha): 0 | Plant response rating, Horseweed ([12]; 125 g ai/ha): 0

N#Cc1cccc(Oc2ncc(Cl)cn2)c1Oc1ncc(C(F)(F)F)cn1 [Compound 38, 3-[(5-chloro-2-pyrimidinyl)oxy]-2-[[5-(trifluoromethyl)-2-pyrimidinyl]oxy]-benzonitrile]
Plant response rating, Johnsongrass ([13]; 16 g ai/ha): 0 | Plant response rating, Johnsongrass ([13]; 31 g ai/ha): 0 | Plant response rating, Johnsongrass ([13]; 62 g ai/ha): 100 | Plant response rating, Johnsongrass ([13]; 125 g ai/ha): 95 | Plant response rating, Horseweed ([12]; 16 g ai/ha): 0 | Plant response rating, Horseweed ([12]; 31 g ai/ha): 0 | Plant response rating, Horseweed ([12]; 62 g ai/ha): 100 | Plant response rating, Horseweed ([12]; 125 g ai/ha): 98

Fc1cccc(Oc2ncc(C(F)(F)F)cn2)c1Oc1ncc(Cl)cn1 [Compound 42, 5-chloro-2-[2-fluoro-6-[[5-(trifluoromethyl)-2-pyrimidinyl]oxy]phenoxy]pyrimidine]
Plant response rating, Johnsongrass ([13]; 16 g ai/ha): 80 | Plant response rating, Johnsongrass ([13]; 31 g ai/ha): 80 | Plant response rating, Johnsongrass ([13]; 62 g ai/ha): 95 | Plant response rating, Johnsongrass ([13]; 125 g ai/ha): 100 | Plant response rating, Poinsettia, Wild ([11]; 16 g ai/ha): 20 | Plant response rating, Poinsettia, Wild ([11]; 31 g ai/ha): 20 | Plant response rating, Poinsettia, Wild ([11]; 62 g ai/ha): 80 | Plant response rating, Poinsettia, Wild ([11]; 125 g ai/ha): 100 | Plant response rating, Horseweed ([12]; 31 g ai/ha): 0 | Plant response rating, Wheat, Winter ([1]; 16 g ai/ha): 0 | Plant response rating, Wheat, Winter ([1]; 31 g ai/ha): 5 | Plant response rating, Wheat, Winter ([1]; 62 g ai/ha): 10 | Plant response rating, Wheat, Winter ([1]; 125 g ai/ha): 20 | Plant response rating, Kochia (kochia (Kochia scoparia); 16 g ai/ha): 85 | Plant response rating, Kochia (kochia (Kochia scoparia); 31 g ai/ha): 100 | Plant response rating, Kochia (kochia (Kochia scoparia); 62 g ai/ha): 100 | Plant response rating, Kochia (kochia (Kochia scoparia); 125 g ai/ha): 100 | Plant response rating, Radish, Wild ([2]; 16 g ai/ha): 80 | Plant response rating, Radish, Wild ([2]; 31 g ai/ha): 75 | Plant response rating, Radish, Wild ([2]; 62 g ai/ha): 85 | Plant response rating, Radish, Wild ([2]; 125 g ai/ha): 90 | Plant response rating, Oilseed Rape ([4]; 16 g ai/ha): 75 | Plant response rating, Oilseed Rape ([4]; 31 g ai/ha): 75 | Plant response rating, Oilseed Rape ([4]; 62 g ai/ha): 85 | Plant response rating, Oilseed Rape ([4]; 125 g ai/ha): 95 | Plant response rating, Russian Thistle ([5]; 16 g ai/ha): 10 | Plant response rating, Russian Thistle ([5]; 31 g ai/ha): 10 | Plant response rating, Russian Thistle ([5]; 62 g ai/ha): 25 | Plant response rating, Russian Thistle ([5]; 125 g ai/ha): 70 | Plant response rating, Barley, Spring ([6]; 16 g ai/ha): 10 | Plant response rating, Barley, Spring ([6]; 31 g ai/ha): 15 | Plant response rating, Barley, Spring ([6]; 62 g ai/ha): 20 | Plant response rating, Barley, Spring ([6]; 125 g ai/ha): 30 | Plant response rating, Field Poppy ([7]; 16 g ai/ha): 55 | Plant response rating, Field Poppy ([7]; 31 g ai/ha): 75 | Plant response rating, Field Poppy ([7]; 62 g ai/ha): 100 | Plant response rating, Field Poppy ([7]; 125 g ai/ha): 100 | Plant response rating, Speedwell ([8]; 16 g ai/ha): 40 | Plant response rating, Speedwell ([8]; 31 g ai/ha): 50 | Plant response rating, Speedwell ([8]; 62 g ai/ha): 80 | Plant response rating, Speedwell ([8]; 125 g ai/ha): 80 | Plant response rating, Mustard, Wild ([9]; 16 g ai/ha): 70 | Plant response rating, Mustard, Wild ([9]; 31 g ai/ha): 70 | Plant response rating, Mustard, Wild ([9]; 62 g ai/ha): 100 | Plant response rating, Mustard, Wild ([9]; 125 g ai/ha): 100 | Plant response rating, Chamomile ([10]; 16 g ai/ha): 0 | Plant response rating, Chamomile ([10]; 31 g ai/ha): 0 | Plant response rating, Chamomile ([10]; 62 g ai/ha): 5 | Plant response rating, Chamomile ([10]; 125 g ai/ha): 15 | Plant response rating, Oat, Wild (wild oat (Avenafatua); 16 g ai/ha): 5 | Plant response rating, Oat, Wild (wild oat (Avenafatua); 31 g ai/ha): 5 | Plant response rating, Oat, Wild (wild oat (Avenafatua); 62 g ai/ha): 50 | Plant response rating, Oat, Wild (wild oat (Avenafatua); 125 g ai/ha): 95
